Measured values from patent US9302999B2, “Substituted triazoles as herbicides” (E. I. DU PONT DE NEMOURS AND COMPANY, priority 2012, dated 2016).

What was measured:
Format in all cases: in vivo
[1] = test system: bromegrass, downy (downy bromegrass, Bromus tectorum); experiment: Test C pre-/postemergence: bromegrass, downy
Procedure, shortened: (§1)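 Preemergence on seeds in loam/sand, postemergence on 2–18 cm (1–4-leaf) plants in peat-based medium; compounds in non-phytotoxic solvent with surfactant. After 13–15 days in greenhouse, visual rating versus controls, 0 (no effect) to 100 (complete control).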

[2] = test system: galium (catchweed bedstraw, Galium aparine); experiment: Test C pre-/postemergence: galium
Procedure, shortened: as §1

[3] = test system: crabgrass, large (large crabgrass, Digitaria sanguinalis); experiment: Test A pre-/postemergence: crabgrass, large; details: for Crabgrass, Large plant response rating: Postemergence; for Plant response rating, Crabgrass, Large: Preemergence
Procedure, shortened: (§2)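 Visual 0–100 injury ratings (0 no effect, 100 complete control) taken about ten days after treatment, relative to untreated controls. Preemergence treatment was a directed soil spray; postemergence plants were 2–10 cm tall at one- to two-leaf stage. Soil: loam/sand blend.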

[4] = test system: nightshade (eastern black nightshade, Solanum ptycanthum); experiment: Test C pre-/postemergence: nightshade; details: Preemergence
Procedure, shortened: as §1

[5] = test system: johnsongrass (Sorghum halepense); experiment: Test C pre-/postemergence: johnsongrass
Procedure, shortened: as §1

[6] = test system: velvetleaf (Abutilon theophrasti); experiment: Test A pre-/postemergence: velvetleaf; details: for Velvetleaf plant response rating: visual rating on 0 to 100 scale (0 no effect, 100 complete control), approximately ten days
Procedure, shortened: as §2

[7] = test system: morningglory (Ipomoea coccinea); experiment: Test C pre-/postemergence: morningglory
Procedure, shortened: as §1

[8] = test system: foxtail, giant (giant foxtail, Setaria faberii); experiment: Test A pre-/postemergence: foxtail, giant; details: for Foxtail, Giant plant response rating: Postemergence; for Plant response rating, Foxtail, Giant: Preemergence
Procedure, shortened: as §2

[9] = test system: blackgrass (Alopecurus myosuroides); experiment: Test C pre-/postemergence: blackgrass
Procedure, shortened: as §1

[10] = test system: morningglory (Ipomoea spp.); experiment: Test A pre-/postemergence: morningglory; details: for Morningglory plant response rating: visual rating on 0 to 100 scale (0 no effect, 100 complete control), approximately ten days
Procedure, shortened: as §2

[11] = Postemergence, 31 g ai/ha, scale 0 to 100 (0 no effect, 100 complete control)
[12] = Postemergence, 62 g ai/ha, scale 0 to 100 (0 no effect, 100 complete control)
[13] = Postemergence, 125 g ai/ha, scale 0 to 100, 0 no effect, 100 complete control
[14] = Postemergence, 250 g ai/ha, scale 0 to 100
[15] = Preemergence, 31 g ai/ha, scale of 0 to 100, 0 is no effect, 100 is complete control
[16] = Preemergence, 62 g ai/ha, scale of 0 to 100, 0 is no effect, 100 is complete control
[17] = Preemergence, 125 g ai/ha, scale 0 to 100, 0 no effect, 100 complete control
[18] = Preemergence, 250 g ai/ha, scale 0 to 100, 0 no effect, 100 complete control
[19] = 125 g ai/ha, 0 to 100 scale, 0 is no effect, 100 is complete control
[20] = 500 g ai/ha, visual rating on 0 to 100 scale (0 no effect, 100 complete control), approximately ten days
[21] = 125 g ai/ha, 0 to 100 scale where 0 is no effect and 100 is complete control
[22] = 500 g ai/ha, 0 to 100 scale (0 no effect, 100 complete control)
[23] = 62 g ai/ha, scale of 0 to 100, 0 is no effect, 100 is complete control
[24] = 125 g ai/ha, scale 0 to 100, 0 no effect, 100 complete control
[25] = 250 g ai/ha, scale 0 to 100, 0 no effect, 100 complete control
[26] = Postemergence, 125 g ai/ha, 0 to 100 scale, 0 is no effect, 100 is complete control
[27] = Preemergence, 125 g ai/ha, 0 to 100 scale where 0 is no effect and 100 is complete control
[28] = Preemergence, 500 g ai/ha, 0 to 100 scale (0 no effect, 100 complete control)

## COc1nn(-c2ccc(C(F)(F)F)cc2)nc1Cc1ccnc(C(F)F)c1 [Compound 138]
[1]; [11]
  Plant response rating, Bromegrass, Downy: 40
[1]; [12]
  Plant response rating, Bromegrass, Downy: 45
[1]; [13]
  Plant response rating, Bromegrass, Downy: 50
[1]; [14]
  Plant response rating, Bromegrass, Downy: 65
[1]; [15]
  Plant response rating, Bromegrass, Downy: 10
[1]; [16]
  Plant response rating, Bromegrass, Downy: 30
[1]; [17]
  Plant response rating, Bromegrass, Downy: 60
[1]; [18]
  Plant response rating, Bromegrass, Downy: 80
[2]; [11]
  Plant response rating, Galium: 85
[2]; [12]
  Plant response rating, Galium: 90
[2]; [14]
  Plant response rating, Galium: 90
[2]; [15]
  Plant response rating, Galium: 95
[2]; [16]
  Plant response rating, Galium: 100
[2]; [17]
  Plant response rating, Galium: 100
[2]; [18]
  Plant response rating, Galium: 100
[3]; [19]
  Crabgrass, Large plant response rating: 90
[3]; [20]
  Crabgrass, Large plant response rating: 90
[3]; [21]
  Plant response rating, Crabgrass, Large: 90
[3]; [22]
  Plant response rating, Crabgrass, Large: 90
[4]; 31 g ai/ha, scale of 0 to 100, 0 is no effect, 100 is complete control
  Plant response rating, Nightshade: 90
[4]; [23]
  Plant response rating, Nightshade: 95
[4]; [24]
  Plant response rating, Nightshade: 98
[4]; [25]
  Plant response rating, Nightshade: 98
[5]; [11]
  Plant response rating, Johnsongrass: 45
[5]; [12]
  Plant response rating, Johnsongrass: 45
[5]; [13]
  Plant response rating, Johnsongrass: 45
[5]; [14]
  Plant response rating, Johnsongrass: 95
[5]; [15]
  Plant response rating, Johnsongrass: 45
[5]; [16]
  Plant response rating, Johnsongrass: 85
[5]; [17]
  Plant response rating, Johnsongrass: 98
[5]; [18]
  Plant response rating, Johnsongrass: 100
[6]; [26]
  Plant response rating, Velvetleaf: 100
[6]; Postemergence, 500 g ai/ha
  Velvetleaf plant response rating: 100
[6]; [27]
  Plant response rating, Velvetleaf: 70
[6]; [28]
  Plant response rating, Velvetleaf: 100
[7]; [11]
  Plant response rating, Morningglory: 90
[7]; [12]
  Plant response rating, Morningglory: 90
[7]; [13]
  Plant response rating, Morningglory: 98
[7]; [14]
  Plant response rating, Morningglory: 98
[7]; [15]
  Plant response rating, Morningglory: 15
[7]; [16]
  Plant response rating, Morningglory: 55
[7]; [17]
  Plant response rating, Morningglory: 65
[7]; [18]
  Plant response rating, Morningglory: 98
[8]; [19]
  Foxtail, Giant plant response rating: 90
[8]; [20]
  Foxtail, Giant plant response rating: 90
[8]; [21]
  Plant response rating, Foxtail, Giant: 100
[8]; [22]
  Plant response rating, Foxtail, Giant: 100
[9]; [11]
  Plant response rating, Blackgrass: 20
[9]; [12]
  Plant response rating, Blackgrass: 40
[9]; [13]
  Plant response rating, Blackgrass: 40
[9]; [14]
  Plant response rating, Blackgrass: 45
[9]; [15]
  Plant response rating, Blackgrass: 90
[9]; [16]
  Plant response rating, Blackgrass: 95
[9]; [17]
  Plant response rating, Blackgrass: 95
[9]; [18]
  Plant response rating, Blackgrass: 95
[10]; [26]
  Plant response rating, Morningglory: 100
[10]; Postemergence, 500 g ai/ha
  Morningglory plant response rating: 100
[10]; [27]
  Plant response rating, Morningglory: 70
[10]; [28]
  Plant response rating, Morningglory: 90

## COc1nn(-c2cccc(F)c2)nc1Cc1ccnc(C(F)(F)F)c1 [Compound 139]
[1]; [11]
  Plant response rating, Bromegrass, Downy: 5
[1]; [12]
  Plant response rating, Bromegrass, Downy: 10
[1]; [13]
  Plant response rating, Bromegrass, Downy: 15
[1]; [14]
  Plant response rating, Bromegrass, Downy: 30
[1]; [15]
  Plant response rating, Bromegrass, Downy: 0
[1]; [16]
  Plant response rating, Bromegrass, Downy: 20
[1]; [18]
  Plant response rating, Bromegrass, Downy: 85
[2]; [11]
  Plant response rating, Galium: 60
[2]; [12]
  Plant response rating, Galium: 70
[2]; [13]
  Plant response rating, Galium: 80
[2]; [14]
  Plant response rating, Galium: 80
[2]; [15]
  Plant response rating, Galium: 5
[2]; [16]
  Plant response rating, Galium: 80
[2]; [17]
  Plant response rating, Galium: 85
[2]; [18]
  Plant response rating, Galium: 95
[3]; [19]
  Crabgrass, Large plant response rating: 90
[3]; [20]
  Crabgrass, Large plant response rating: 90
[3]; [21]
  Plant response rating, Crabgrass, Large: 100
[3]; [22]
  Plant response rating, Crabgrass, Large: 100
[4]; [23]
  Plant response rating, Nightshade: 75
[4]; [24]
  Plant response rating, Nightshade: 85
[4]; [25]
  Plant response rating, Nightshade: 98
[5]; [11]
  Plant response rating, Johnsongrass: 30
[5]; [12]
  Plant response rating, Johnsongrass: 50
[5]; [13]
  Plant response rating, Johnsongrass: 80
[5]; [14]
  Plant response rating, Johnsongrass: 80
[5]; [15]
  Plant response rating, Johnsongrass: 15
[5]; [16]
  Plant response rating, Johnsongrass: 45
[5]; [17]
  Plant response rating, Johnsongrass: 100
[5]; [18]
  Plant response rating, Johnsongrass: 100
[6]; [26]
  Plant response rating, Velvetleaf: 90
[6]; Postemergence, 500 g ai/ha
  Velvetleaf plant response rating: 100
[6]; [27]
  Plant response rating, Velvetleaf: 30
[6]; [28]
  Plant response rating, Velvetleaf: 90
[7]; [11]
  Plant response rating, Morningglory: 55
[7]; [12]
  Plant response rating, Morningglory: 60
[7]; [13]
  Plant response rating, Morningglory: 60
[7]; [14]
  Plant response rating, Morningglory: 70
[7]; [15]
  Plant response rating, Morningglory: 15
[7]; [16]
  Plant response rating, Morningglory: 15
[7]; [17]
  Plant response rating, Morningglory: 35
[7]; [18]
  Plant response rating, Morningglory: 55
[8]; [19]
  Foxtail, Giant plant response rating: 90
[8]; [20]
  Foxtail, Giant plant response rating: 100
[8]; [21]
  Plant response rating, Foxtail, Giant: 100
[8]; [22]
  Plant response rating, Foxtail, Giant: 100
[9]; [11]
  Plant response rating, Blackgrass: 35
[9]; [12]
  Plant response rating, Blackgrass: 40
[9]; [13]
  Plant response rating, Blackgrass: 70
[9]; [14]
  Plant response rating, Blackgrass: 70
[9]; [15]
  Plant response rating, Blackgrass: 45
[9]; [16]
  Plant response rating, Blackgrass: 90
[9]; [17]
  Plant response rating, Blackgrass: 90
[9]; [18]
  Plant response rating, Blackgrass: 90
[10]; [26]
  Plant response rating, Morningglory: 80
[10]; Postemergence, 500 g ai/ha
  Morningglory plant response rating: 100
[10]; [27]
  Plant response rating, Morningglory: 50
[10]; [28]
  Plant response rating, Morningglory: 70
